Results reported in the supplement of paper PMC13380429.
± gives the standard deviation of the averaged measurements.

How the values were obtained:
Details in all cases: 72 h
Calu-3 [1] = experiment: relative viability EC50 (midpoint between 100% and the lowest measured viability); higher = less toxic
Caco-2 [2] = experiment: as above
HepG2 [3] = experiment: as above
Vero E6 [4] = experiment: as above
U2OS [5] = experiment: as above
Calu-3 [6] = experiment: cell viability relative to DMSO; higher = less toxic
Caco-2 [7] = experiment: as above
HepG2 [8] = experiment: as above
Vero E6 [9] = experiment: as above
U2OS [10] = experiment: as above
Calu-3 [11] = experiment: drug sensitivity score (DSS) for viability; higher = more toxic; extreme values may be limits of the assay
Caco-2 [12] = experiment: as above
HepG2 [13] = experiment: as above
Vero E6 [14] = experiment: as above
U2OS [15] = experiment: as above

| SMILES | relative viability EC50 (Calu-3 [1]) [µM] | relative viability EC50 (Caco-2 [2]) [µM] | relative viability EC50 (HepG2 [3]) [µM] | relative viability EC50 (Vero E6 [4]) [µM] | relative viability EC50 (U2OS [5]) [µM] | cell viability (Calu-3 [6]; 1 nM) [%] | cell viability (Calu-3 [6]; 10 nM) [%] | cell viability (Calu-3 [6]; 100 nM) [%] | cell viability (Calu-3 [6]; 1000 nM) [%] | cell viability (Calu-3 [6]; 10000 nM) [%] | cell viability (Caco-2 [7]; 1 nM) [%] | cell viability (Caco-2 [7]; 10 nM) [%] | cell viability (Caco-2 [7]; 100 nM) [%] | cell viability (Caco-2 [7]; 1000 nM) [%] | cell viability (Caco-2 [7]; 10000 nM) [%] | cell viability (HepG2 [8]; 1 nM) [%] | cell viability (HepG2 [8]; 10 nM) [%] | cell viability (HepG2 [8]; 100 nM) [%] | cell viability (HepG2 [8]; 1000 nM) [%] | cell viability (HepG2 [8]; 10000 nM) [%] | cell viability (Vero E6 [9]; 1 nM) [%] | cell viability (Vero E6 [9]; 10 nM) [%] | cell viability (Vero E6 [9]; 100 nM) [%] | cell viability (Vero E6 [9]; 1000 nM) [%] | cell viability (Vero E6 [9]; 10000 nM) [%] | cell viability (U2OS [10]; 1 nM) [%] | cell viability (U2OS [10]; 10 nM) [%] | cell viability (U2OS [10]; 100 nM) [%] | cell viability (U2OS [10]; 1000 nM) [%] | cell viability (U2OS [10]; 10000 nM) [%] | drug sensitivity score (Calu-3 [11]) | drug sensitivity score (Caco-2 [12]) | drug sensitivity score (HepG2 [13]) | drug sensitivity score (Vero E6 [14]) | drug sensitivity score (U2OS [15]) |
| --- | --- | --- | --- | --- | --- | --- | --- | --- | --- | --- | --- | --- | --- | --- | --- | --- | --- | --- | --- | --- | --- | --- | --- | --- | --- | --- | --- | --- | --- | --- | --- | --- | --- | --- | --- |
| CN1[C@@H]2CC[C@H]1C[C@@H](OC(=O)N1Cc3ccccc3NC1=O)C2 [DAU-5884] | > 10 | > 10 | > 10 | > 10 | > 10 | 96.5 | 105 | 98.1 | 99.3 | 94.4 | 93.3 | 91.7 | 89.5 | 97.3 | 92.7 | 105 | 93.3 | 94.5 | 110 | 97.3 | 101 | 94.6 | 97.9 | 96.8 | 91.3 | 97.2 | 102 | 94.4 | 100 | 100 | 0 | 0 | 0 | 0 | 0 |
| CCCC[C@@]1(C2CCCC2)Cc2cc(OCCCC(=O)O)c(Cl)c(Cl)c2C1=O [DCPIB] | > 10 | > 10 | > 10 | > 10 | > 10 | 87 | 96.4 | 106 | 89.1 | 118 | 105 | 108 | 103 | 88.3 | 85.8 | 109 | 98.1 | 99.1 | 92.5 | 94.8 | 109 | 109 | 99.7 | 100 | 101 | 95.7 | 90.4 | 97.4 | 93.9 | 94.5 | 0 | 0.9 | 0 | 0 | 0 |
| CCN(c1nc(N)c(C(=O)NC(=N)N)nc1Cl)C(C)C [EIPA] | > 10 | > 10 | > 10 | > 10 | > 10 | 92.4 | 104 | 91.9 | 102 | 84.9 | 90.8 | 104 | 101 | 100 | 105 | 100 | 97.4 | 101 | 85.6 | 86.5 | 103 | 94.2 | 96.2 | 94.2 | 104 | 99.7 | 100 | 99.8 | 102 | 93.8 | 0.2 | 0 | 1.2 | 0 | 0 |
| O=C(/C=C/c1cccnc1)NCCCCC1CCN(C(=O)c2ccccc2)CC1 [FK-866] | 0.0392 | 0.0134 | 0.0092 | 0.0361 | 0.0303 | 110 | 112 | 7 | 5.1 | 4.6 | 93.7 | 65 | 5.8 | 5 | 5.6 | 84.6 | 57.9 | 16.6 | 11.3 | 11.7 | 106 | 106 | 2.7 | 1.2 | 1.9 | 97.8 | 98.1 | 0 | -0.5 | 0 | 28.1 | 33.2 | 31.9 | 29.4 | 30.7 |
| Cc1c(CN2CCN(C(=O)[C@H](C)O)CC2)sc2c(N3CCOCC3)nc(-c3cnc(N)nc3)nc12 [GDC-0980] | 0.537 | 0.561 | 0.67 | 0.899 | 1.53 | 107 | 101 | 93.6 | 42.2 | 19.2 | 99.4 | 88.5 | 93.1 | 47.8 | 22.4 | 104 | 102 | 89.9 | 49.5 | 15.9 | 96.5 | 101 | 87.7 | 62.9 | 23.4 | 101 | 98 | 98.8 | 78.9 | 18.1 | 11.9 | 11 | 11.1 | 8.8 | 7.8 |
| CN1C(=O)N(c2ccc(C#N)c(C(F)(F)F)c2)C(=O)[C@]1(CO)c1ccccc1 [GLPG0492-R-enantiomer] | > 10 | > 10 | > 10 | > 10 | > 10 | 95.9 ± 3.8 | 109 ± 4.2 | 106 ± 3.9 | 105 ± 2.9 | 110 ± 15 | 96.1 ± 13 | 99.5 ± 4.8 | 94.4 ± 5.4 | 96 ± 7.1 | 93.7 ± 7.5 | 102 ± 8.3 | 103 ± 2.5 | 102.8 ± 0.78 | 100 ± 5.1 | 102 ± 3.8 | 96.6 ± 0.28 | 101 ± 2.3 | 96.7 ± 4.3 | 97 ± 0.99 | 94.3 ± 8.8 | 101 ± 4.5 | 104 ± 3.9 | 99 ± 1.3 | 101 ± 5.1 | 97.5 ± 4.2 | 0 | 0 | 0 | 0 | 0 |
| O=C(O)CCNc1cc(N2CCc3ccccc3CC2)nc(-c2cccnc2)n1 [GSK-J2] | > 10 | > 10 | > 10 | > 10 | > 10 | 100 | 97.1 | 91.5 | 105 | 97.2 | 96.6 | 100 | 98.6 | 94.8 | 87.1 | 99.7 | 97.3 | 96.6 | 98.8 | 103 | 97.3 | 108 | 98.9 | 98 | 99.1 | 98.5 | 95.4 | 94.8 | 98.3 | 91.2 | 0 | 0.2 | 0 | 0 | 0 |
